Patent publication US20060135773A1, “Trisubstituted nitrogen modulators of tyrosine phosphatases” (priority 2004, published 2006)
Like-named read-outs stand apart in the source and are kept apart here.

Columns and labels:
[1] = test system: pIR (phosphorylated insulin receptor) in FAO cells; assay: IR phosphorylation assay in FAO cells (pIR ELISA / Western); format: cell-based, rat; settings: 10 nM insulin and 10 μM compound
Excerpt: Antibodies and Chemicals. The antibody against phosphorylated insulin receptor (pIR) and the ELISA kit for detection of pIR were from Biosource (Camarillo, Calif.). Rabbit anti-IR/IGF-IR [pYpY1162/1163] phosphospecific antibody recognizes both the insulin receptor (IR) and the insulin-like growth factor-1 receptor (IGF-1R) phosphorylated at the active site tyrosine residues, 1162 and 1163 (1135 and 1136 for IGF-1R) (pIR/pIGF-1R). The Insulin Receptor [pYpY1162/1163] […] HRP-conjugated secondary antibodies were from Cell Signaling Technology (Beverly, Mass.). The ECL detection system was from Amersham (Buckinghamshire, UK), and human insulin was from Invitrogen (Carlsbad, Calif.).
Tissue Culture. FAO rat hepatoma cells were obtained from ECACC (#89042701) and maintained at 37° C. in a 5% CO2 environment in Dulbecco's modified Eagle's medium with high glucose (DMEM-high glucose) (4500 mg/liter) supplemented with 10% FBS and 50 units/ml penicillin, 100 μg/ml streptomycin and 0.292 mg/ml L-glutamine. For assays, cells were seeded in 24-well plates at a density of 2×10^5 cells/well and maintained until they reached confluency (about 3 days).
IR phosphorylation assays. Cells in 24-well plates were serum starved overnight in DMEM-low glucose (1000 mg/liter) without serum. […] The pIR/pIGF-1R signals were scanned (HP scanjet 3570c) and quantified (Scion Image). […]

[2] = target: T1, PTP-1B (Homo sapiens, UniProt P18031); assay: pNPP tyrosine phosphatase inhibition assay, PTP-1B; format: biochemical
T1 construct: PTP-1B (purified, 1 mg/mL) as a 1:250 dilution
T1 sequence (P18031 1-321 limits assumed): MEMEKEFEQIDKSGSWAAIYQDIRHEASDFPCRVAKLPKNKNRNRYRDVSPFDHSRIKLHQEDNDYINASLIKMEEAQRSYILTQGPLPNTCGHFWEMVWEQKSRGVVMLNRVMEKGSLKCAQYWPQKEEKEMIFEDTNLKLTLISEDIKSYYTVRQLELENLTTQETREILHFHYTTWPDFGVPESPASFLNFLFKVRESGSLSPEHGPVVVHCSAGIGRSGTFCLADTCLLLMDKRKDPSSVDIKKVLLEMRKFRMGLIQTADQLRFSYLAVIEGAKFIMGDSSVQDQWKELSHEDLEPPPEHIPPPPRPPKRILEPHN
Method in brief: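 Test compounds were screened at two final levels, 31.3 and 10 µM, against 4 µg/mL purified PTP-1B. The substrate was 10 mM p-nitrophenyl phosphate, with incubation for 10 min at 30°C before a K2CO3 quench. Activity was taken from A405.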

[3] = pNPP assay, PTP-1B, read-out: Activity Class (IC50 ranges)

Compound	IC50 ([2]; in vitro activity of the prodrug, range as in Table 1, read-out: in vitro activity) [nM]	IC50 [2, 3] [nM]	melting point [°C]	insulin-induced accumulation of pIR, % of 300 nM insulin pIR signal [1]
CN(Cc1ccc(C(F)(F)P(=O)(O)O)cc1)Cc1ccc(C(F)(F)P(=O)(O)O)cc1 [Compound 15, {[4-({[4-(Difluoro-phosphono-methyl)-benzyl]-methyl-amino}-methyl)-phenyl]-difluoro-methyl}-phosphonic acid]	–	> 25000	268 to 270	–
O=C(c1ccccc1)N(Cc1ccc(C(F)(F)P(=O)(O)O)cc1)Cc1ccc(C(F)(F)P(=O)(O)O)cc1 [Compound 11, {[4-({Benzoyl-[4-(difluoro-phosphono-methyl)-benzyl]-amino}-methyl)-phenyl]-difluoro-methyl}-phosphonic acid]	–	2500 to 25000	87 to 89	–
O=P(O)(O)C(F)(F)c1ccc(CN(Cc2ccc(-c3ccccc3)cc2)Cc2ccc(C(F)(F)P(=O)(O)O)cc2)cc1 [Compound 20, {[4-({Biphenyl-4-ylmethyl-[4-(difluoro-phosphono-methyl)-benzyl]-amino}-methyl)-phenyl]-difluoro-methyl}-phosphonic acid]	–	2500 to 25000	125 to 128	–

Second part, led by results:

IC50 ([2]; in vitro activity of the prodrug, range as in Table 1, read-out: in vitro activity) [nM]	IC50 [2, 3] [nM]	melting point [°C]	Compound	insulin-induced accumulation of pIR, % of 300 nM insulin pIR signal [1]
2500 to 25000	2500 to 25000	–	COc1ccccc1S(=O)(=O)N(Cc1ccc(-c2cccc(C#N)c2)cc1)Cc1ccc(C(F)(F)P(=O)(O)OC(C)OC(=O)OC(C)C)c(Cl)c1 (stereo not shown) [Compound 218, [(2-Chloro-4-{[(3′-cyano-biphenyl-4-ylmethyl)-(2-methoxy-benzenesulfonyl)-amino]-methyl}-phenyl)-difluoro-methyl]-phosphonic acid mono-(1-isopropoxycarbonyloxy-ethyl) ester]	about 80 % of 300 nM insulin pIR signal
–	100 to 249	160 to 162	O=C(O)c1ccc(CN(Cc2ccc(C(F)(F)P(=O)(O)O)c(Br)c2)S(=O)(=O)c2ccccc2)cc1 [Compound 31, 4-({Benzenesulfonyl-[3-bromo-4-(difluoro-phosphono-methyl)-benzyl]-amino}-methyl)-benzoic acid]	–
–	100 to 249	170 to 172	O=P(O)(O)C(F)(F)c1ccc(CN(Cc2ccc(C(F)(F)P(=O)(O)O)cc2)S(=O)(=O)c2ccccc2Cl)cc1 [Compound 5, {[4-({(2-Chloro-benzenesulfonyl)-[4-(difluoro-phosphono-methyl)-benzyl]-amino}-methyl)-phenyl]-difluoro-methyl}-phosphonic acid]	–
